Where two headings read alike, the source gives them in different places.
Columns and labels:
[1] = human, plasma, 2 h
[2] = Characterisation of prodrug LNP: particle size, PdI, prodrug entrapment; assay type: physicochemical; conditions: for % Entrap (Dex/Calcitriol): Calcitriol: Table 2, calcitriol prodrug; for PdI / Size: Table 2, prodrug LNP
Method: Lipid conjugates (prodrugs) were dissolved in ethanol, isopropanol, DMSO or THF. LNP were prepared by rapidly mixing DSPC or DMPC, cholesterol, prodrugs, and PEG-DSPE (in a molar ratio of 49/40/10/1) with phosphate-buffered saline (PBS) using a cross-junction mixer. Formulations were dialyzed against PBS to remove residual ethanol. In cases where a peptide antigen, such as ovalbumin peptide […] (OVA), was co-formulated within the LNP, the peptide is dissolved in PBS and rapidly mixed with the lipid phase. Dialysis or tangential flow filtration was used to remove all unentrapped peptide.
(§1) The physiochemical properties of the LNPs prepared as described above were subsequently characterized. Particle size was determined by dynamic light scattering using a Malvern Zetasizer Nano ZS (Malvern, UK) following buffer exchange into phosphate-buffered saline. Number-weighted size and distribution data was used. Lipid concentrations were determined by measuring total cholesterol using the Cholesterol E enzymatic assay kit from Wako Chemicals USA (Richmond, VA). mRNA entrapment was determined using a modified Quanti-iT Ribogreen assay (ThermoFisher, Waltham, MA). LNP-mRNA systems were incubated in the presence or absence of 1% Triton X-100 (Sigma-Aldrich, St. Louis, MO). Fluorescence intensities (Ex/Em: 480/520 nm) were compare to determine % mRNA entrapment.

[3] = Retention of lipid conjugate (prodrug) in LNP after incubation in human plasma; conditions: 2 hours incubation in human plasma; DSPC/Chol/Prodrug/DSPE-PEG LNP
[4] = tested on: CD4+ T cells from OT-II mice; assay: Antigen-specific OT-II CD4+ T cell proliferation with OVA peptide and prodrug-treated BMDCs; assay type: cell-based; conditions: BMDCs pre-treated with prodrug LNP, pulsed with free OVA peptide
From the text: CD4 T cells were collected from OT-II mice. These mice have T cell receptors on CD4+ T cells engineered to bind and react to Ovalbumin 323-339 peptide fragment (OVA) when presented on I-Ab MHC Class II. When APCs are loaded with OVA and mixed with these T cells, a robust proliferation of T cells is observed (akin to having an antigen-specific immune disorder).
For the antigen specific model, splenocytes were isolated from OT-II mice (B6.Cg-Tg (TcraTcrb) 425Cbn/J; Jackson Laboratories). CD4+ T cells were purified by CD4 positive selection (EasySep™ Mouse CD4+ T Cell Isolation Kit, Catalog #19852, Stem Cell Technologies) and labelled with 10 μM CFSE and plated in 96-well U bottom plates at a density of 100,000 cells/well. On the same day, prodrug treated C57BL/6 BMDCs (described above) were harvested, pulsed with/without OVA peptide, irradiated at 30 Gy, and co-cultured with the CD4+ cells for 3 days at T:DC ratios of 50:1, 10:1 and 5:1, in RPMI 1640 media (supplemented with 10% FBS, 10 mM HEPES, 50 μM β-mercaptoethanol, 10 mM sodium pyruvate, 1× GlutaMAX, and 1% Pen/Strep). Subsequently, cells were stained for viability (eBioscience Fixable Viability Dye eFlour780, cat #65-0865) and CD4 (eBioscience CD4 Monoclonal Antibody (RM4-5), cat #48-0042-82), and T cell proliferation was quantified via CFSE dilution by flow cytometry.

[5] = Characterisation of LNP co-loaded with mRNA and prodrugs: Z-Ave, PDI, mRNA and prodrug entrapment; assay type: physicochemical
Method: To prepare LNPs that contain mRNA that codes for the antigen, ionizable lipid such as INT-A002 (see page 32 of co-owned WO 2021/026647; Application No. PCT/CA2020/051098, which is incorporated herein by reference), DSPC, cholesterol and PEG-DMG were dissolved in ethanol. Prodrugs were dissolved in ethanol, isopropanol, DMSO or THF. The mRNA was dissolved in 10 mM citrate or 25 mM acetate buffer at pH 4.0. LNP were prepared by rapidly mixing the lipid components in ethanol (in molar ratio of 45/8.5/35/1.5/10 of INT-A002/DSPC/chol/PEG-DMG/prodrugs) with nucleic acids in aqueous buffer at a volumetric flow rate ratio of 1:3 (ethanol to aqueous, combined flow rate 28 ml/min) at room temperature. The product was then dialyzed against 1× phosphate-buffered saline (PBS) at pH 7.4 for 24 hours to remove residual ethanol and to raise the pH.
as §1

[6] = tested on: Ova specific CD4+ T cells (OT-II T cells); assay: OT-II CD4+ T cell proliferation after BMDC co-treatment with LNP-mRNA and prodrug-LNP; assay type: cell-based, mice; conditions: BMDCs treated 48 hours with LNP-mRNA only or LNP-mRNA and separate prodrug LNP
Method: The mRNA used in this example is modified to minimize immune stimulation and encodes for full length Ovalbumin (Ova) protein (Trilink, L-7210). Bone marrow-derived dendritic cells (BMDCs) were prepared as previously described and co-cultured with isolated CD4+ T cells (OT-II T cells) that specifically recognize the Ova323-339 epitope loaded in H-2b MHC Class II (C57BL/6 haplotype). Proliferation was assessed based on CFSE dilution by flow cytometry. BMDCs pulsed for 4 hours with free Ova323-339 peptide (0.1 μg/mL) served as an antigen-loaded control (Free Ova Peptide), and untreated BMDCs served as the No Antigen control. 48 hours prior to co-culturing, BMDCs were treated with LNP-mRNA only or LNP-mRNA and LNP containing dexamethasone (D034) or calcitriol (D053) prodrugs.

[7] = Table 6, LNP-mRNA with lipid conjugate

Molecule | lipid conjugate (prodrug) remaining in LNPs [1] | % Entrap (Dex/Calcitriol): Calcitriol [2] | PdI [2] | Size [2] | lipid conjugate (prodrug) remaining in LNPs [3] | T cell proliferation induced by OVA loaded BMDCs [4] | % mRNA Entrap. [5, 7] | PDI [5, 7] | Z-Ave (nm) ([5]; Table 6, LNP-mRNA with lipid conjugate (mol %)) | T-cell proliferation (CFSE dilution) [6]
CCCCC/C=C\C/C=C\CCCCCCCC(=O)O[C@@H](C/C=C\CCCCCCCCOC(=O)CCC(=O)OCC(=O)[C@@]1(O)[C@H](C)C[C@H]2[C@@H]3CCC4=CC(=O)C=C[C@]4(C)[C@@]3(F)[C@@H](O)C[C@@]21C)CCCCCC [Prodrug D045, 2-((8S,9R,10S,11S,13S,14S,16R,17R)-9-fluoro-11,17-dihydroxy-10,13,16-trimethyl-3-oxo-6,7,8,9,10,11,12,13,14,15,16,17-dodecahydro-3H-cyclopenta[a]phenanthren-17-yl)-2-oxoethyl ((R,Z)-12-(linoleoyloxy)octadec-9-en-1-yl) succinate] | stably retained |  |  |  |  |  |  |  |  | 
C=C1/C(=C\C=C2/CCC[C@]3(C)[C@@H]([C@H](C)CCCC(C)(C)O)CC[C@@H]23)C[C@@H](OC(=O)CCCCCCC/C=C\C[C@@H](CCCCCC)OC(=O)CCCCCCC/C=C\C/C=C\CCCCC)C[C@@H]1OC(=O)CCCCCCC/C=C\C[C@@H](CCCCCC)OC(=O)CCCCCCC/C=C\C/C=C\CCCCC [Prodrug D087] |  | —/99% | 0.055 | 40 nm |  |  |  |  |  | 
(1R,3S,Z)-3-hydroxy-5-(2-((1R,3aS,7aR,E)-1-((R)-6-hydroxy-6-methylheptan-2-yl)-7a-methyloctahydro-4H-inden-4-ylidene)ethylidene)-4-methylenecyclohexyl (R,Z)-12-acetoxyoctadec-9-enoate and (1S,5R,Z)-5-hydroxy-3-(2-((1R,3aS,7aR,E)-1-((R)-6-hydroxy-6-methylheptan-2-yl)-7a-methyloctahydro-4H-inden-4-ylidene)ethylidene)-2-methylenecyclohexyl (R,Z)-12-acetoxyoctadec-9-enoate [Prodrug D053] |  | —/98% | 0.070 | 55 nm | stably retained | significantly reduces | 97% | 0.034 | 69 nm | suppressed
